Holding throughout (type): in vivo
In experiment [1] the test system is Soybean Rust (Phakopsora pachyrhizi). The experiment in a line: Soybean rust control effect test. The conditions noted are these: sprayed on soybean seedlings at 100 g a.i./ha, then spray-inoculated; disease severity of first leaf examined after 12 to 14 days. The text has this:
[Test Example 1] Soybean Rust (Phakopsora pachyrhizi) Control Effect Test
Soybean seeds were sown in a pot and sprayed on the grown seedlings so that the amount of the active ingredient was 100 g a.i./ha. Thereafter, a soybean rust fungus was spray-inoculated, the pot was transferred to a wet room and was kept under dark conditions, and invasion of pathogens was promoted. Thereafter, the pot was managed in a greenhouse, after 12 to 14 days, a degree of disease severity for each first leaf was examined according to the criteria in Table 226 to determine a degree of disease severity by a calculation formula of Equation 1, and a control value was determined by a calculation formula of Equation 2.
(§1) [in the formula, N represents the total number of examined leaves, n0 represents the number of leaves having a disease severity index of 0, n1 represents the number of leaves having a disease severity index of 1, n2 represents the number of leaves having a disease severity index of 2, n3 represents the number of leaves having a disease severity index of 3, and n4 represents the number of leaves having a disease severity index of 4.]

Experiment [2] relates to Wheat rust (Puccinia recondita). The experiment in a line: Wheat rust control effect test. The conditions noted are these: chemical solution 50 ppm active ingredient sprayed on wheat seedlings, then spray-inoculated; first leaf examined after 9 days.
Excerpt: as §1
[Test Example 2] Wheat rust (Puccinia recondita) control effect test Wheat seeds were sown in a pot, and a chemical solution was sprayed on the grown seedlings so that the concentration of the active ingredient was 50 ppm. Thereafter, a wheat rust fungus was spray-inoculated, the pot was transferred to a wet room and was kept under dark conditions, and invasion of pathogens was promoted. Thereafter, the pot was managed in a greenhouse, after 9 days, a degree of disease severity for each first leaf was examined according to the criteria in Table 220 to determine a degree of disease severity by a calculation formula of Equation 1, and a control value was determined by a calculation formula of Equation Formula 2.

For experiment [3], the system named is Rice Sheath Blight Disease (Rhizoctonia solani). The experiment in a line: Rice sheath blight disease control effect test. The conditions noted are these: chemical solution 50 ppm active ingredient sprayed on rice seedlings, then inoculated with bran medium culture; lesion height examined after 5 days.
Excerpt: as §1
[Test Example 3] Rice Sheath Blight Disease (Rhizoctonia solani) Control Effect Test
Rice seeds were sown in a pot, and a chemical solution was sprayed on the grown seedlings so that the concentration of the active ingredient was 50 ppm. Thereafter, a bran medium in which a rice sheath blight fungi was cultured was inoculated into the strain, the bran medium was transferred to a wet room, and invasion of pathogens was promoted. Thereafter, the pot was managed in a greenhouse, after 5 days, a lesion height was examined according to the criteria in Table 221 to determine a degree of disease severity by a calculation formula of Equation 1, and a control value was determined by a calculation formula of Equation 2.

Consider `CCC(=O)N(Cc1ccccc1)c1ccc(-c2noc(C(F)(F)F)n2)cc1` [comparative compound], for which the values for the control value result in experiment [1], in experiment [2] and in experiment [3] were “less than 60”, not above 12.5 and not above 12.5, respectively.

The values above are taken from patent publication US20240358020A1, “FORMAMIDE DERIVATIVE AND AGRICULTURAL OR HORTICULTURAL PLANT DISEASE CONTROL AGENT” (Kumiai Chemical Industry Co., Ltd., priority 2021, published 2024).
